Source: PubChem BioAssay AID489024 (Sanford-Burnham Center for Chemical Genomics, 2010)
Calls of active or inactive are those of the source.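 The calls were made as follows: active = compounds whose mean EC50, the dose giving half the maximal reporter activation, is at or below a set limit; inactive = the rest.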

Target: CHO-CHOP luciferase reporter, UPR activation, luminescence
Assay: CHOP reporter induction, apoptotic UPR branch – CHO-CHOP cells, luciferase luminescence, confirmation (AID 489024);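 also: compounds added alone to reporter cells with no tunicamycin stress co-treatment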

Structure (SMILES)	EC50
O=C(/C=C/c1ccc([N+](=O)[O-])cc1)/C=C/c1ccco1	6.61 µM
CC1=C(CC/C(C)=N/NC(N)=S)C(C)(C)CCC1	19.8 µM
COc1cc(/C=C/[N+](=O)[O-])ccc1O	> 80 µM (inactive)
COc1ccccc1-c1cc(C(F)(F)F)nc(S(=O)(=O)CCCC(=O)N2CCCCC2C)n1 (stereo not drawn)	7.68 µM
O=C(CSc1ccccn1)Nc1nonc1[N+](=O)[O-]	19.1 µM
CCCn1c(CC)nc([N+](=O)[O-])c1S(=O)(=O)c1ccccc1	> 80 µM (inactive)
O=[N+]([O-])c1ccc(Sc2cccc3cccnc23)c([N+](=O)[O-])c1	> 80 µM (inactive)
Oc1ccc(-c2csc(Nc3cccc4ccccc34)n2)cc1O	3.19 µM
COc1cc(SC#N)ccc1N=Cc1c(C)[nH]n(-c2ccc(Cl)cc2)c1=O	11.9 µM
CC(C)CNC(=O)c1coc(=O)c(Br)c1	12 µM
Cc1ccc(Nc2nc(-c3ccc(O)c(O)c3)cs2)nc1	1.56 µM
COc1ccc(/C=C/c2ccc3cccc(O)c3n2)c(OC)c1OC	8.23 µM
c1ccc(-c2nc(N3CCCCCC3)c3ccccc3n2)nc1	inactive
C[C@@H]1CN([C@H](C)CO)C(=O)c2cc(NC(=O)Nc3ccc(C(F)(F)F)cc3)ccc2O[C@H]1CN(C)Cc1ccc(Cl)c(Cl)c1	> 80 µM (inactive)
Cn1nnnc1Sc1ncnc2scc(-c3cc4ccccc4o3)c12	9.26 µM
O=S1(=O)Nc2c(ccc3cccnc23)-c2ccccc21	3.42 µM
O=C(NC(=S)Nc1ccc(NC(=O)c2cccs2)cc1)c1cc2ccccc2o1	inactive
CCc1cc2c(=O)[nH]c(-c3ccccn3)nc2s1	2.61 µM
O=[N+]([O-])c1ccc(Sc2nnnn2-c2ccccc2)nc1	> 80 µM (inactive)
COCc1cc(C)nc(OCC(=O)N/N=C/c2ccc(-c3cc([N+](=O)[O-])ccc3Cl)o2)c1C#N	14.3 µM
COc1cc(C(=O)Nc2nc(-c3ccc(Cl)cc3)c(C)s2)ccc1OCC(=O)Nc1ccc(F)cc1	13.3 µM
Cc1cc(C(=O)CCl)c(C)n1CC1COc2ccccc2O1 (stereo not drawn)	8.22 µM

Structure (SMILES)	EC50
O=C(Nc1nc(-c2ccc(F)c(F)c2)cs1)Nc1ccc(F)cc1F	> 80 µM (inactive)
Cc1ccc(F)cc1N=Cc1c(O)c2ccccc2oc1=O	6.17 µM
CCc1ccc(-n2c(SCC(=O)c3ccc4c(c3)NC(=O)CO4)nc3ccccc3c2=O)cc1	12.9 µM
COc1c(Cl)cc(Cl)cc1/C=C/C(=O)c1ccc(NC(=O)c2cccs2)cc1	4.63 µM
CNC[C@@H](Cc1ccccc1)NC[C@@H](CC1CCCCC1)NCCCc1ccccc1	4.63 µM
O=C(Oc1oc(-c2ccco2)nc1C=Nc1ccc(Cl)cc1)c1ccco1	8.89 µM
COc1cc(OC)cc(C(=O)NC(=S)Nc2cc3oc4ccccc4c3cc2OC)c1	inactive
CC(C)[C@H](NC(=O)OC(C)(C)C)c1nnc(S(=O)(=O)Cc2c(F)cccc2Cl)o1	> 80 µM (inactive)
CC(C)C(=O)N1CCN(c2ccc(NC(=O)c3ccc([N+](=O)[O-])o3)cc2)CC1	1.64 µM
O=C(COC(=O)c1ccccc1C(=O)c1ccc(Cl)c([N+](=O)[O-])c1)NC1CCCCCC1	> 80 µM (inactive)
CC(C)N1C/C(=C/c2ccsc2)C(=O)/C(=C/c2ccsc2)C1	7.08 µM
O=C(/C=C/Sc1ccccc1)c1ccccc1	6.98 µM
COc1ccc(N2C(=O)/C(=C/C=C/c3ccccc3[N+](=O)[O-])C(=O)NC2=S)cc1	> 80 µM (inactive)
COc1ccc2cc(C)c3nnc(SCC(=O)Nc4nc(-c5ccc(F)cc5)cs4)n3c2c1	10.7 µM
Cc1ccc(NN2C(=O)C=C(c3ccccc3)C2=O)cc1	14.5 µM
Oc1ccc(/C=N/N(c2ccccc2)c2ccccc2)cc1O	inactive
O=C(CCl)Nc1cccc(CP(=O)(c2ccccc2)c2ccccc2)c1	> 80 µM (inactive)
CCN(CC)S(=O)(=O)c1cc(NC(=O)Cn2ncc(Cl)c(Cl)c2=O)ccc1C	8.03 µM
Oc1ccc(/C=N/N2CCCCC2)cc1O	inactive
COC(=O)c1c(NC(=O)c2ccc([N+](=O)[O-])o2)sc2c1CCN(C(C)C)C2	1.76 µM
CSc1nnc(NC(=O)c2nc(S(=O)(=O)Cc3ccccc3)ncc2Cl)s1	> 80 µM (inactive)
CCOc1cc(/C=C2/C(=O)ON=C2C)ccc1OCc1ccccc1F	15.9 µM

Structure (SMILES)	EC50
COc1ccc(N=Nc2ccc(O)c3ncccc23)cc1	7.89 µM
O=C(/C=C1\NC2(CCCC2)Cc2ccccc21)C(=O)N/N=C/c1ccc(O)c(O)c1	9.4 µM
CCCCCCCCCCn1c2c(c(=N)c3c1CCC3)CCC2	14.1 µM
Cc1ccc2cccc(NS(=O)(=O)c3ccccc3)c2n1	3.53 µM
O=C(CSc1cccc2cccnc12)N/N=C/c1cccnc1	7.64 µM
COc1ccc(CCNC(=O)c2coc(=O)c(Br)c2)cc1	7.26 µM
N#CC12COC3(CCCCC3C1(C#N)C#N)OC2=N (stereo not drawn)	> 80 µM (inactive)
OCCNc1nc(Nc2ccc(Cl)c(Cl)c2)nc2ccccc12	11.7 µM
COc1ccccc1-c1nnc(Nc2nc3c(OC)cccc3s2)o1	2.48 µM
Cc1nc([N+](=O)[O-])c(Br)n1CC(=O)c1ccc(Cl)cc1	> 80 µM (inactive)
Cc1cc(SCC(=O)N/N=C/c2ccc(O)c(O)c2)nc2ccccc12	18.3 µM
CCOc1cc(/C=N/NC(N)=S)cc(Br)c1OCc1ccccc1C	inactive
Cc1cc(C)c2c(c1)/C(=c1/sc3n(c1=O)CN(c1ccccc1)CN=3)C(=O)N2	11.6 µM
O=C(N/N=C\c1cc2c(cc1Cl)OCO2)c1ccc(Br)s1	> 80 µM (inactive)
CCOC(=O)c1cnc(Nc2nc3ccccc3o2)nc1CSC(=S)N(CC)CC	0.91 µM
Oc1ccc(/C=N/N2CCN(C3c4ccccc4-c4ccccc43)CC2)cc1O	inactive
CCOC(=O)CSc1cccc2cccnc12	11.4 µM
Oc1[nH]c2ccccc2c1N=NC(=S)N1CCOCC1	7.74 µM
COc1ccccc1N=Cc1c(O)c2ccccc2oc1=O	12.5 µM
Cc1c(C#N)c(NC(=O)CCl)n(Cc2ccccc2)c1C	14.4 µM
CCOC(=O)C(CC)(CC)C(=O)/C=C/c1cccc(Br)c1	11.8 µM
O=C(Oc1ccccc1/C=C\C(=O)c1cc2ccccc2o1)c1ccccc1	12.9 µM

Structure (SMILES)	EC50
O=C1C=CC(=O)C(C2=C3C(=O)N(CCc4ccccc4)CC(=O)N3CCC2)=C1	9.95 µM
Cc1ccc(-c2nc(NC(=O)c3nn(C)cc3[N+](=O)[O-])sc2C)cc1C	6.33 µM
Oc1[nH]c2ccc(Br)cc2c1N=NC(=S)N1CCOCC1	4.28 µM
O=C(Nc1ccc(S(=O)(=O)N2CCCC2)cc1)c1ccc([N+](=O)[O-])o1	0.81 µM
CCN(CC)S(=O)(=O)c1ccc(N/N=C(\C)c2ccc3c(c2)OCO3)c([N+](=O)[O-])c1	inactive
Cc1ccc(NC(=O)COc2ccc(/C=C3/SC(=Nc4ccccc4)N(Cc4cccnc4)C3=O)cc2)cc1	inactive
Cc1ccc2nc(-c3ccc(NC(=S)NC4CC(C)(C)NC(C)(C)C4)cc3)sc2c1	6.95 µM
Oc1ccc2ccccc2c1N=Nc1ccccn1	8.55 µM
N#CC(C#N)=C1C=CC=CN1/C(=C\c1ccccc1)C(=O)c1cccs1	> 80 µM (inactive)
COc1ccc(CNC[C@@H](CCCCN(C)Cc2ccc(OC)cc2)N2C[C@H](c3ccccc3)N(CCc3ccc(Cl)c(Cl)c3)C(=O)C2=O)cc1	7.73 µM
O=[N+]([O-])c1cc(O)c2ncccc2c1	13.3 µM
FC(F)(F)c1nnc(-c2ccccc2)nc1Sc1ccccc1	8.09 µM
CCOC(=O)C1=C(CCl)NC(=O)NC1c1ccc2c(c1)OCO2 (stereo not drawn)	> 80 µM (inactive)
C[C@@H](NC(=O)c1coc(=O)c(Br)c1)c1ccccc1	9.34 µM
COc1cc(/C=C2\C(=O)ON=C2c2ccc(Cl)cc2)ccc1O	11.8 µM
O=C(/C=C/Sc1ccccc1)c1ccc(Cl)cc1	10.6 µM
O=C(CSC(=S)N1CCCC1)c1cc(Br)cc(Br)c1O	inactive
Cc1[nH]c2c(C)cccc2c1CCNC(=O)c1ccc2c(c1[N+](=O)[O-])C(=O)c1ccccc1C2=O	6.46 µM
CCc1cccc2c(C(=O)CCl)c[nH]c12	15.7 µM
Cc1ccc(Sc2ccc(/C=C3/C(=O)NN(c4ccccc4)C3=O)o2)cc1	inactive
CCc1nn(-c2cc(Oc3cccc4ccccc34)nc(-c3ccccc3)n2)c(N)c1C#N	inactive
CCc1ccc(N2C(=O)NC(=O)/C(=C\C=C\c3ccco3)C2=O)cc1	7.33 µM

Structure (SMILES)	EC50
Cc1ccc(-c2cc(-c3ccc(C)cc3)[n+](-c3ccccc3)c(-c3ccc(C)cc3)c2)cc1	3.77 µM
Cc1ccc(-c2nc(NC(=O)c3nn(C)cc3[N+](=O)[O-])sc2C)cc1	8.48 µM
Oc1ccc(/C=N/Nc2nc(N3CCCC3)nc(N3CCCC3)n2)cc1O	2.93 µM
N#CC1(C#N)COC23CCCCC2C1(C#N)C(=N)O3 (stereo not drawn)	19.3 µM
COc1ccc(N=c2oc3c(OC)cccc3cc2C(=O)NCc2ccco2)c(OC)c1	inactive
N=c1c(-c2nc3ccccc3[nH]2)cc(C(=O)c2ccco2)nn1-c1ccccc1	15.2 µM
CC1=CC(=O)C(C(C)C)=C/C1=N/OC(=O)c1cccc([N+](=O)[O-])c1	> 80 µM (inactive)
O=[N+]([O-])c1cc(-c2ncccn2)c([N+](=O)[O-])s1	7.51 µM
CN(C)CC(C(=O)c1ccccc1)c1ccccc1 (stereo not drawn)	6.77 µM
Cc1ccc(-c2nc(N/N=C/c3cccc([N+](=O)[O-])c3)c3ccccc3n2)cc1	inactive
Cc1c(C#N)c(NC(=O)CCl)n(Cc2cccs2)c1C	> 80 µM (inactive)
Cn1c(/C=C/c2ccc([N+](=O)[O-])o2)nc2ccccc2c1=O	6.93 µM
O=C(CCN1C(=O)/C(=C\c2ccccc2F)SC1=S)N1CCCCC1	> 80 µM (inactive)
O=C(CCl)Nc1ccc(-c2ccccc2)cc1	> 80 µM (inactive)
CCOC(=O)C(=CNc1nc(-c2ccccc2)c(C(=O)Nc2ccc(-c3ccccc3)cc2)s1)C(=O)OCC	inactive
COc1ccc(C(=O)C(CN2CCCC2)c2ccccc2)cc1 (stereo not drawn)	13.9 µM
CN(/N=C\c1ccc(O)c(O)c1)c1nc(-c2ccccc2)cc(-c2ccccc2)n1	1.32 µM
COc1ccc(-c2cc3ccccc3oc2=O)cc1NC(=S)NC(=O)c1ccc2c(c1)OCCO2	14.9 µM
CC(C)(C)C(=O)NC(=S)NNC(=O)c1ccc(-c2ccccc2)cc1	12.9 µM
Cc1ccc(Sc2nc(-c3ccccc3)nnc2C(F)(F)F)cc1	> 80 µM (inactive)
